Values quoted from earlier work as cited in patent EP3335699A1, “SELEXIPAG FORMULATION IN LIQUISOLID SYSTEM” (H e x a l Aktiengesellschaft, priority 2016, dated 2018).

Settings: low solubility and low permeability; b10 refers to crystalline forms

- BCS (Biopharmaceutics Classification System) class: class IV
Compound: CC(C)N(CCCCOCC(=O)NS(C)(=O)=O)c1cnc(-c2ccccc2)c(-c2ccccc2)n1 [selexipag]
